Data set [1] relates to right atrium sample, spontaneous cardiac rate. In words: Test on cardiac rate lowering effect (spontaneously beating isolated right atrium in Magnus tube). To be noted: Cavia porcellus, 0.5 h; concentration lowering the spontaneous cardiac rate by 30%; guinea pig right atrium; data 30 minutes after addition. The protocol:
2. Test on Cardiac Rate Lowering Effect
The test on cardiac rate lowering effect was carried out by a method according to Walter, K., et al. Eur. J. Pharmacol., 104(1-2):9-18, 1984.
Male guinea pigs of a Hartley strain having a body weight of about 250 to 400 g were fainted away by knocking the head and killed by draining out the blood, and the heart was excised. A right atrium sample was prepared in a Tyrode's solution which was fully aerated with 95% oxygen and 5% carbon dioxide gas. The sample was applied to a hook made of stainless steel and suspended at a load tension of 1.0 g in a Magnus tube filled with a Tyrode's solution which was well aerated with 95% oxygen and 5% carbon dioxide gas, whereby the spontaneously pulsing cardiac rate was recorded. After suspending, the sample was allowed to stand for a stabilization period of 1 hour or more, the test compound was cumulatively added into a Magnus tube every 30 to 45 minutes and a concentration vs. effect curve was determined from the data after 30 minutes from the administration of the substance, whereby the effect was judged. The cardiac rate lowering effect was compared in terms of the concentration (EC30) of the substance which lowered the spontaneous cardiac rate to an extent of 30% from the data before the administration.

A short description of data set [2]: Test on convulsion expression. It counts as in vivo, rat. Particulars: 40 mg/kg i.v. (tail vein), once; male Wister rats; observed about 1 hour. The protocol: 3. Test on Convulsion Expression
Male rats of a Wister strain having a body weight of 250 to 350 g under awaking were fixed in a cage, and the test compound was administered from a tail vein. The test compound was administered at a dose of either 20 mg/kg (i.v.) or 40 mg/kg (i.v.) once for each rat. […] The influence of the test compound on the spontaneous behavior of the rat was evaluated by the fact whether or not the convulsion was noted within the observed period.

Structures can show the parent of a compound that is named as a salt.

By EC30 is commonly meant the point of the concentration-response curve where the effect stands at 30%. A lower EC30 goes with greater potency. What is called melting point is the temperature of the solid-liquid transition.

In the case of `COc1cc2c(cc1OC)CN(C(=O)C1CCCN(CCNC(=O)c3ccc(F)cc3)C1)CC2` (stereo not shown) [Example 40], in data set [1], the EC30 worked out at 330 nM. For the same molecule, the “General Findings (convulsion)” value in data set [2] is given as “No abnormal finding”.
As for `COc1ccc(C(=O)NCCN2CCCC(C(=O)N3CCc4cc(OC)c(OC)cc4C3)C2)cc1F` (stereo not shown) [Example 27], the 30% effect level in data set [1] (EC30) was put at 410 nM. The “General Findings (convulsion)” value in data set [2] is “No abnormal finding”.
The molecule `COc1cc2c(cc1OC)CN(C(=O)C1CCCN(CCC(=O)Nc3cccc(Cl)c3)C1)CC2` (stereo not shown) [Example 12] displayed an EC30 in data set [1] of 270 nM.
For `COc1cc2c(cc1OC)CN(C(=O)C1CCCN(CCNC(=O)c3ccc4c(c3)OCCO4)C1)CC2` (stereo not shown) [Example 30], the “General Findings (convulsion)” value in data set [2] is listed as “No abnormal finding”.
The same measure, in the same setting: as for `COc1cc(C(=O)NCCN2CCCC(C(=O)N3CCc4cc(OC)c(OC)cc4C3)C2)ccc1C` (stereo not shown) [Example 28], the entry is “No abnormal finding”.
In data set [1], `COc1cccc(C(=O)NCCN2CCCC(C(=O)N3CCc4cc(OC)c(OC)cc4C3)C2)c1` (racemic) [Example 10, (±)-N-{2-[3-(6,7-dimethoxy-1,2,3,4-tetrahydroisoquinoline-2-carbonyl)-piperidino]ethyl}-3-methoxybenzamide oxalate] displayed an EC30 of 270 nM. Also, the “General Findings (convulsion)” value in data set [2] is “No abnormal finding”.
The matching figures for `COc1cc2c(cc1OC)CN(C(=O)C1CCCN(CCC(=O)Nc3ccc4c(c3)OCO4)C1)CC2` (racemic) [Example 2, (±)-3-[3-(6,7-dimethoxy-1,2,3,4-tetrahydroisoquinoline-2-carbonyl)piperidino]-N-(3,4-methylenedioxyphenyl)propanamide hydrochloride]: 300 nM and “No abnormal finding”.
In turn, `COc1cc2c(cc1OC)CN(C(=O)[C@@H]1CCCN(CCNC(=O)c3ccc(F)cc3)C1)CC2` [Example 49] returned an EC30 in data set [1] of 290 nM. Also, the “General Findings (convulsion)” value in data set [2] was “No abnormal finding”.
On the same counts, the results for `COc1cc2c(cc1OC)CN(C(=O)[C@H]1CCCN(CCNC(=O)c3ccc(F)cc3)C1)CC2` [Example 50] are 310 nM and “No abnormal finding”.
On to `COc1cc2c(cc1OC)CN(C(=O)C1CCCN(CCNC(=O)c3ccc4c(c3)OCO4)C1)CC2` (racemic) [Example 9, (±)-N-{2-[3-(6,7-dimethoxy-1,2,3,4-tetrahydrolsoquinoline-2-carbonyl)piperidino]ethyl}-3,4-methylenedioxybenzamide hydrochloride], for which the EC30 in data set [1] worked out at 270 nM. The “General Findings (convulsion)” value in data set [2] is “No abnormal finding”.
Take `COc1ccc(NC(=O)CCN2CCCC(C(=O)N3CCc4cc(OC)c(OC)cc4C3)C2)cc1` (racemic) [Example 4, (±)-3-[3-(6,7-dimethoxy-1,2,3,4-tetrahydroisoquinoline-2-carbonyl)piperidino]-N-(4-methoxyphenyl)propanamide hydrochloride]: in data set [1], it took 570 nM to reach the 30% level (EC30). For the same molecule, the “General Findings (convulsion)” value in data set [2] is reported as “No abnormal finding”.
In turn, `COc1cc2c(cc1OC)CN(C(=O)[C@H]1CCCN(CCNC(=O)c3ccc4c(c3)OCO4)C1)CC2` [Example 38] showed a melting point of 154 to 155 °C. This molecule yielded an EC30 in data set [1] of 290 nM. Also, the “General Findings (convulsion)” value in data set [2] is recorded as “No abnormal finding”.
In the case of `COc1cc2c(cc1OC)CN(C(=O)C1CCCN(CCC(=O)Nc3ccc4ncsc4c3)C1)CC2` (stereo not shown) [Example 14], in data set [1], the EC30 came to 470 nM. In addition, the “General Findings (convulsion)” value in data set [2] is reported as “No abnormal finding”.
`COc1cc2c(cc1OC)CN(C(=O)C1CCCN(CCNC(=O)c3ccc(F)c(F)c3)C1)CC2` (stereo not shown) [Example 29] yielded an EC30 in data set [1] of 290 nM. Also, the “General Findings (convulsion)” value in data set [2] is “No abnormal finding”.
Molecule `COc1cc2c(cc1OC)CN(C(=O)[C@@H]1CCCN(CCNC(=O)c3ccc4c(c3)OCO4)C1)CC2` [Example 37] came in with a melting point of 150 to 151 °C. In addition, the EC30 in data set [1] was 300 nM. In addition, the “General Findings (convulsion)” value in data set [2] is recorded as “No abnormal finding”.
With `COc1cc2c(cc1OC)CN(C(=O)[C@H]1CCCN(CCC(=O)Nc3ccc4c(c3)OCO4)C1)CC2` [Example 6, (+)-3-[(S)-3-(6,7-dimethoxy-1,2,3,4-tetrahydroisoquinoline-2-carbonyl)piperidino]-N-(3,4-methylenedioxyphenyl)propanamide D-tartrate], in data set [1], it took 320 nM to reach the 30% level (EC30). The “General Findings (convulsion)” value in data set [2] is on record as “No abnormal finding”.
On the same counts, the results for `COc1ccc(C(=O)NCCN2CCCC(C(=O)N3CCc4cc(OC)c(OC)cc4C3)C2)cc1C` (stereo not shown) [Example 26] are 240 nM and “No abnormal finding”.
Turning to `COc1cc2c(cc1OC)CN(C(=O)C1CCCN(CCCC(=O)Nc3ccc4c(c3)OCO4)C1)CC2` (racemic) (as salt: oxalate) [Example 7, (±)-4-[3-(6,7-dimethoxy-1,2,3,4-tetrahydroisoquinoline-2-carbonoyl)piperidino]-N-(3,4-methylenedioxyphenyl)butanamide oxalate], the melting point fell in the range of 113 to 116 °C.
Molecule `COc1cc2c(cc1OC)CN(C(=O)C1CCCN(CCC(=O)Nc3ccc(OC)c(C(F)(F)F)c3)C1)CC2` (stereo not shown) (as salt: HCl) [Example 13] had a melting point of 166 to 168 °C.
`COc1cc2c(cc1OC)CN(C(=O)[C@@H]1CCCN(CCC(=O)Nc3ccc4c(c3)OCO4)C1)CC2` [Example 5, (−)-3-[(R)-3-(6,7-dimethoxy-1,2,3,4-tetrahydroisoquinoline-2-carbonyl)piperidino]-N-(3,4-methylenedioxyphenyl)propanamide L-tartrate] registered an EC30 in data set [1] of 380 nM. Also, in data set [2], the “General Findings (convulsion)” value is “No abnormal finding”.
The molecule `COc1ccc(C(=O)NCCN2CCC=C(C(=O)N3CCc4cc(OC)c(OC)cc4C3)C2)cc1` [Example 47] came in with a melting point of 153 to 154 °C. Besides, the “General Findings (convulsion)” value in data set [2] was “No abnormal finding”.
`COc1cc2c(cc1OC)CN(C(=O)C1CCCN(CCNC(=O)c3ccc4c(c3)OCCO4)C1)CC2` (stereo not shown) (as salt: salt) [Example 30]: the melting point lay within 126 to 130 °C.

The values above are taken from US6573279B1, “Isoquinoline derivatives or salts thereof” (priority 1999, dated 2003).
